Source: patent publication US12441703B2, “Carboxamides as modulators of sodium channels” (VERTEX PHARMACEUTICALS INCORPORATED, priority 2019, dated 2025)

molecular target: human NaV 1.8 (Homo sapiens, UniProt Q9Y5Y9); assay: E-VIPR assay for detecting and measuring NaV inhibition properties; type: cell-based; details: E-VIPR assay conducted in the presence of human serum; HEK cells expressing truncated human NaV 1.8; read-out: IC50
In short: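 Membrane-potential (coumarin/oxonol) readout after 10 s of 10 Hz biphasic electrical stimulation on E-VIPR. Compounds: 11-point 3-fold dilutions, […], 0.625% DMSO, 30 min at room temperature, human serum optional. Cells: HEK expressing truncated human NaV1.8 co-transduced with KIR2.1.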

Chain of human NaV 1.8 (Q9Y5Y9 whole entry, looked up, the tested form may be a part): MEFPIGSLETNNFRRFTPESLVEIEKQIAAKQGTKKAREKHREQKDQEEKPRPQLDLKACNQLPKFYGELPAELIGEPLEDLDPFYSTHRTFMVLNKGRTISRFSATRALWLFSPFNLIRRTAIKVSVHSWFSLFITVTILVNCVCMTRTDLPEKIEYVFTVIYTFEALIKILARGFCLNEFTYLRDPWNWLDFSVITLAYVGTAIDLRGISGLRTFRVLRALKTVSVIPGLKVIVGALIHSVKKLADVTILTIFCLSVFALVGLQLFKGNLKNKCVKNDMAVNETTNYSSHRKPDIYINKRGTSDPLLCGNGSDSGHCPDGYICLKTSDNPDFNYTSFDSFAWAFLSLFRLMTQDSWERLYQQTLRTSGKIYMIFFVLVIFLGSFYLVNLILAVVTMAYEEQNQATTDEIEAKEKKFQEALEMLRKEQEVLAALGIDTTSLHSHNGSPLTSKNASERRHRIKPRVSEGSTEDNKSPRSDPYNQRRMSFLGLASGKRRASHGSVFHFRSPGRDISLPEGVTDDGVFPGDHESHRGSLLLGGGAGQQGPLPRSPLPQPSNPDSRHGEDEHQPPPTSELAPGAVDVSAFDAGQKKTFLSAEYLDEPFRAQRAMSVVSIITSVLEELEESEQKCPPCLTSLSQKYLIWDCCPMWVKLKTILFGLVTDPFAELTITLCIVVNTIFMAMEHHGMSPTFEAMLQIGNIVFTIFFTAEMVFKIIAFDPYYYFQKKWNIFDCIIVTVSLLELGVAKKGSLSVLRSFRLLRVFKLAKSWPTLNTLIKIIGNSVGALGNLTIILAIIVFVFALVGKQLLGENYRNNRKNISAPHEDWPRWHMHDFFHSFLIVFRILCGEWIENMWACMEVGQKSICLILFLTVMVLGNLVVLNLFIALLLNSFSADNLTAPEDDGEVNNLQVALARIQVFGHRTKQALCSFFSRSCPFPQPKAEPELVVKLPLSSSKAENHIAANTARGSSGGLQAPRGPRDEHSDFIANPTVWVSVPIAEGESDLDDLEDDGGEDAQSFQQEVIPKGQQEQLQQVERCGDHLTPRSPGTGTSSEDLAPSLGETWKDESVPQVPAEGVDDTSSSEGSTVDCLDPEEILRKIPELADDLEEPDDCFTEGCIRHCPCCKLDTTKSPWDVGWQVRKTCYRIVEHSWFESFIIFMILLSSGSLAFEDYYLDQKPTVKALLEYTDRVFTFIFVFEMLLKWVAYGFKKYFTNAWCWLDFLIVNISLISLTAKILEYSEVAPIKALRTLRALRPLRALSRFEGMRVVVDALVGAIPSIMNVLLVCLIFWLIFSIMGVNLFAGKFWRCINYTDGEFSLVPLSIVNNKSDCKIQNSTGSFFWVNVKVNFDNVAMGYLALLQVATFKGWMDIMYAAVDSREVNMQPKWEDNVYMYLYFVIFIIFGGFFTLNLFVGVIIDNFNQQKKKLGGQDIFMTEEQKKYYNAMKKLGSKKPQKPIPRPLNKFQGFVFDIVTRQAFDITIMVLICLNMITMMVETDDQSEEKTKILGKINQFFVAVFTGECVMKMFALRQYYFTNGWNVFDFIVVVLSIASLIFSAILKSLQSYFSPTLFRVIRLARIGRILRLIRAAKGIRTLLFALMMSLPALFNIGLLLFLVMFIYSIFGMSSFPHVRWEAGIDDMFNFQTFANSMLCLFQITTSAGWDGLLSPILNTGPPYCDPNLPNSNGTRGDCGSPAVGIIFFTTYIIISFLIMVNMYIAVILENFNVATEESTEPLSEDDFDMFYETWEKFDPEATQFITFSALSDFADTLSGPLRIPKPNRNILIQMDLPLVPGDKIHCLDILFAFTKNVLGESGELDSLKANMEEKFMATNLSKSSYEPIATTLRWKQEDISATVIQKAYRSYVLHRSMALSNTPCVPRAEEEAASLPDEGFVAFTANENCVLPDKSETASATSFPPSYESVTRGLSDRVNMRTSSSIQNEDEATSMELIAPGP

| SMILES | IC50 |
| --- | --- |
| Cc1c(C(F)(F)F)ccc(Oc2ccc(Cl)cc2F)c1C(=O)Nc1ccc(C(N)=O)nc1 [Compound 234, 5-[[6-(4-chloro-2-fluoro-phenoxy)-2-methyl-3-(trifluoromethyl)benzoyl]amino]pyridine-2-carboxamide] | > 3000 nM |
| COc1ccc(Oc2ccc(C(F)(F)F)c(C)c2C(=O)Nc2ccc(C(N)=O)nc2)c(Cl)c1 [Compound 235, 5-[[6-(2-chloro-4-methoxy-phenoxy)-2-methyl-3-(trifluoromethyl)benzoyl]amino]pyridine-2-carboxamide] | 1400 nM |
| COc1cc(OC(F)(F)F)ccc1Oc1cc(C(C)(C)C)cnc1C(=O)Nc1ccnc(C(N)=O)c1 [Compound 238, 5-tert-butyl-N-(2-carbamoyl-4-pyridyl)-3-[2-methoxy-4-(trifluoromethoxy)phenoxy]pyridine-2-carboxamide] | 695 nM |
| Cc1c2c(cc(Oc3ccc(OC(F)(F)F)cc3Cl)c1C(=O)Nc1ccc(C(N)=O)nc1)OC(F)(F)O2 [Compound 240, 5-[[6-[2-chloro-4-(trifluoromethoxy)phenoxy]-2,2-difluoro-4-methyl-1,3-benzodioxole-5-carbonyl]amino]pyridine-2-carboxamide] | 570 nM |
| Cc1cc(OC(F)(F)F)cc(Oc2ccc(OC(F)(F)F)cc2Cl)c1C(=O)Nc1ccc(C(N)=O)nc1 [Compound 243, 5-[[2-[2-chloro-4-(trifluoromethoxy)phenoxy]-6-methyl-4-(trifluoromethoxy)benzoyl]amino]pyridine-2-carboxamide] | 1850 nM |
| NC(=O)c1cc(NC(=O)c2c(Oc3ccc(OC(F)(F)F)cc3O)ccc(C(F)(F)F)c2F)cc[n+]1[O-] [Compound 249, 4-[[2-fluoro-6-[2-hydroxy-4-(trifluoromethoxy)phenoxy]-3-(trifluoromethyl)benzoyl]amino]-1-oxido-pyridin-1-ium-2-carboxamide] | 2930 nM |
| NC(=O)c1cc(NC(=O)c2c(-c3ccc(OC(F)(F)F)cc3)ccc(C(F)(F)F)c2F)ccn1 [Compound 250, 4-[[2-fluoro-6-[4-(trifluoromethoxy)phenyl]-3-(trifluoromethyl)benzoyl]amino]pyridine-2-carboxamide] | > 3000 nM |
| COc1cc(F)ccc1-c1ccc(C(F)(F)F)c(F)c1C(=O)Nc1ccnc(C(N)=O)c1 [Compound 251, 4-[[2-fluoro-6-(4-fluoro-2-methoxy-phenyl)-3-(trifluoromethyl)benzoyl]amino]pyridine-2-carboxamide] | > 3000 nM |
| COc1cc(F)ccc1-c1ccc(C(F)(F)F)cc1C(=O)Nc1ccnc(C(N)=O)c1 [Compound 252, 4-[[2-(4-fluoro-2-methoxy-phenyl)-5-(trifluoromethyl)benzoyl]amino]pyridine-2-carboxamide] | > 3000 nM |
| COc1cc(F)ccc1-c1ccc(C(F)(F)F)cc1C(=O)Nc1ccc(F)c(C(N)=O)c1 [Compound 253, N-(3-carbamoyl-4-fluoro-phenyl)-2-(4-fluoro-2-methoxy-phenyl)-5-(trifluoromethyl)benzamide] | > 3000 nM |
| NC(=O)c1cc(NC(=O)c2ccc(C(F)(F)F)cc2-c2ccc(OC(F)(F)F)cc2)ccn1 [Compound 254, 4-[[2-[4-(trifluoromethoxy)phenyl]-4-(trifluoromethyl)benzoyl]amino]pyridine-2-carboxamide] | > 3000 nM |
| COc1cc(OC(F)(F)F)ccc1Oc1cc(C(F)(F)F)cc(Br)c1C(=O)Nc1ccnc(C(N)=O)c1 [Compound 255, 4-[[2-bromo-6-[2-methoxy-4-(trifluoromethoxy)phenoxy]-4-(trifluoromethyl)benzoyl]amino]pyridine-2-carboxamide] | > 3000 nM |
| NC(=O)c1cc(NC(=O)c2cc(Cl)ccc2Oc2ccc(OC(F)(F)F)cn2)ccc1F [Compound 256, 5-[[5-chloro-2-[[5-(trifluoromethoxy)-2-pyridyl]oxy]benzoyl]amino]-2-fluoro-benzamide] | > 3000 nM |

These reach a lower IC50. Values come first.

| IC50 | SMILES |
| --- | --- |
| 170 nM | Cc1cc(OC(F)(F)F)ccc1Oc1ccc(C(F)(F)F)c(C)c1C(=O)Nc1ccc(C(N)=O)nc1 [Compound 236, 5-[[2-methyl-6-[2-methyl-4-(trifluoromethoxy)phenoxy]-3-(trifluoromethyl)benzoyl]amino]pyridine-2-carboxamide] |
| 93 nM | COc1cc(OC(F)(F)F)ccc1Oc1cc(C(C)(C)C)cc(C)c1C(=O)Nc1ccnc(C(N)=O)c1 [Compound 237, 4-[[4-tert-butyl-2-[2-methoxy-4-(trifluoromethoxy)phenoxy]-6-methyl-benzoyl]amino]pyridine-2-carboxamide] |
| 72 nM | Cc1c2c(cc(Oc3ccc(OC(F)(F)F)cc3Cl)c1C(=O)Nc1ccnc(C(N)=O)c1)OC(F)(F)O2 [Compound 239, 4-[[6-[2-chloro-4-(trifluoromethoxy)phenoxy]-2,2-difluoro-4-methyl-1,3-benzodioxole-5-carbonyl]amino]pyridine-2-carboxamide] |
| 190 nM | Cc1cc(OC(F)(F)F)cc(Oc2ccc(OC(F)(F)F)cc2Cl)c1C(=O)Nc1ccnc(C(N)=O)c1 [Compound 241, 4-[[2-[2-chloro-4-(trifluoromethoxy)phenoxy]-6-methyl-4-(trifluoromethoxy)benzoyl]amino]pyridine-2-carboxamide] |
| 13 nM | COc1cc(OC(F)(F)F)ccc1Oc1cc(OC(F)(F)F)cc(C)c1C(=O)Nc1ccnc(C(N)=O)c1 [Compound 242, 4-[[2-[2-methoxy-4-(trifluoromethoxy)phenoxy]-6-methyl-4-(trifluoromethoxy)benzoyl]amino]pyridine-2-carboxamide] |
| 17 nM | COc1cc(OC(F)(F)F)ccc1Oc1ccc(C(F)F)c(C)c1C(=O)Nc1ccnc(C(N)=O)c1 [Compound 244, 4-[[3-(difluoromethyl)-6-[2-methoxy-4-(trifluoromethoxy)phenoxy]-2-methyl-benzoyl]amino]pyridine-2-carboxamide] |
| 333 nM | COc1cc(OC(F)(F)F)ccc1Oc1cc(OC(F)(F)F)cc(C)c1C(=O)Nc1ccc(C(N)=O)nc1 [Compound 245, 5-[[2-[2-methoxy-4-(trifluoromethoxy)phenoxy]-6-methyl-4-(trifluoromethoxy)benzoyl]amino]pyridine-2-carboxamide] |
| 140 nM | COc1cc(OC(F)(F)F)ccc1Oc1cc(C(F)(F)F)c(C2CC2)nc1C(=O)Nc1ccnc(C(N)=O)c1 [Compound 246, N-(2-carbamoyl-4-pyridyl)-6-cyclopropyl-3-[2-methoxy-4-(trifluoromethoxy)phenoxy]-5-(trifluoromethyl)pyridine-2-carboxamide] |
| 190 nM | COc1cc(OC(F)(F)F)ccc1Oc1cc(C(F)(F)F)c(C)nc1C(=O)Nc1ccnc(C(N)=O)c1 [Compound 247, N-(2-carbamoyl-4-pyridyl)-3-[2-methoxy-4-(trifluoromethoxy)phenoxy]-6-methyl-5-(trifluoromethyl)pyridine-2-carboxamide] |
| 27 nM | COc1cc(OC(F)(F)F)ccc1Oc1cc(C2CC2)cc(C)c1C(=O)Nc1ccnc(C(N)=O)c1 [Compound 248, 4-[[4-cyclopropyl-2-[2-methoxy-4-(trifluoromethoxy)phenoxy]-6-methyl-benzoyl]amino]pyridine-2-carboxamide] |
| 8 nM | COc1cc(OC(F)(F)F)ccc1Oc1ccc(C2CCC2)c(C)c1C(=O)Nc1ccnc(C(N)=O)c1 [Compound 257, 4-[[3-cyclobutyl-6-[2-methoxy-4-(trifluoromethoxy)phenoxy]-2-methyl-benzoyl]amino]pyridine-2-carboxamide] |
